Experiments:
[1] = tested on: Ki67, pAKT, PI3K, HSTF-1 and Bcl-2; assay: Western blot of anti-apoptotic proteins in amyloid-β damaged neural stem cells; type: cell-based, rat; conditions: 20 μM amyloid beta, PEP-1 1, 10 and 50 μM, FIGS. 15A-15F
neural stem cells [2] = assay: Co-treatment amyloid-β and PEP-1: apoptosis (TUNEL assay); type: cell-based, rat; conditions: 20 μM amyloid-β protein, 1 to 100 μM of PEP 1
Experimental: (§1) To determine whether PEP 1 has the effect of suppressing the neurotoxicity caused by amyloid-β protein, 20 μM amyloid-β protein and various concentrations of PEP-1 were co-treated for 48 hours. The cell viability and apoptosis were measured using MMT assay, CCK-8 assay, LDH assay and TUNEL assay, and neural stem cell proliferation by BrdU assay.
To confirm the degree of neuronal stem cells damage, TUNEL assay was performed. […] (Refer to FIG. 12)

IL-6 = IL-6 secretion measurement by ELISA in LPS-challenged RAW 264.7 cells; type: cell-based
Experimental: Raw 264.7 macrophage cell (KCBL, 40071) from Korea Cell Bank was maintained in Dulbecco's modified Eagle's medium (DMEM; PAA, Austria) containing 10% fetal bovine serum (FBS; GIBCO®), 100 unit/mL of streptomycin, and penicillin (Gibco Laboratories) at 37° C. with 5% CO2. Raw 264.7 cells were seeded into a 96-well plate at a density of 1×10^6 cells/mL and incubated overnight.
On the following day, the medium was replaced with fresh medium and 5 μg/mL of peptide (obtained as described in Experiment example 1) was added to the cells. After 30 min incubation of cells with the peptide 50 μL of LPS (to a final concentration of 1 μg/mL) was added, and cells were incubated for additional 24 hr. The experimental sample with the induction of inflammatory response was treated with 1 μg/mL mL lipopolysaccharide (LPS; SIGMA-ALDRICH®, USA) and control sample was treated with phosphate buffered saline (PBS; pH 7.2). The supernatant samples from each condition was collected in eppendorf tubes and subjected to further analysis.
To investigate the effect of PEP-1 on inhibiting proinflammatory cytokine production RAW 264.7 cell were pre-treated with PEP 1 at a concentration of 5 μg/mL challenged with LPS at a concentration of 1 μg/mL, and cells were further incubated for 24 hr. The supernatant samples containing cell culture medium was collected and analyzed for the cytokine levels using ELISA kits (eBioscience, San Diego).
96 wells plates were coated with 100 μL of capture antibodies (diluted in coating buffer to the concentration recommended by manufacturer's protocol) overnight at 4° C. Then, after washing the plates 5 times, 200 μL of assay diluents was added to each well and incubated for 1 hr at room temperature for blocking. […]
Following incubation with the secondary antibody, the plate was washed five times and incubated with 100 μL of avidin-HRP (BD Bioscience) for 30 min at room temperature. […] The reaction was stopped by adding 50 μl of 2N H2SO4 in each well The optical density at 450 nm was measured using a microplate reader. […]

HMGB1 [3] = assay: Western blot of HMGB1 in amyloid-β damaged neural stem cells; type: cell-based, rat; conditions: after the decrease by amyloid-β treatment, FIG. 15J
Excerpt: HMGB1, a non-histone structure protein that binds to DNA, serves diverse roles within a cell; such as stabilizing nucleosome structure and regulating gene expression.

neural stem cells [4] = assay: Co-treatment amyloid-β and PEP-1: viability (MMT and CCK-8 assay); type: cell-based, rat; conditions: 20 μM amyloid-β protein, co-treated 48 hours
Experimental: as §1
(Refer to FIG. 8). LDH assay was carried out for assessment of the degree of cell death as another method, and we confirmed that the increase in cell death by amyloid-β decreased by PEP-1, and efficacy was seen starting at 1 μM concentration (Refer to FIG. 9).

[5] = tested on: Bax, GSKβ, Cytochrom-c, caspase-3; assay: Western blot of apoptotic signals in amyloid-β damaged neural stem cells; type: cell-based, rat; conditions: 20 μM amyloid beta, PEP-1 1, 10 and 50 μM, FIGS. 15D, 15G-15I
HMGB1 [6] = assay: 2D-electrophoresis protein expression in neural stem cells; type: cell-based, rat; conditions: 20 ug β-amyloid + PEP 1 treated group, versus negative control 1.0
Experimental: (§2) Protein expression level of PEP-1 treated group and untreated group was analyzed by 2D-electrophoresis technique and antibody microarray technique. Prepared 200 μg by extracting proteome from the neural stem cells cultured in Experiment 3-1 of Example 3. In addition, the group in which PEP-1 was not treated was used as the comparison group in the same condition.
(§3) 2D-electrophoresis was performed using 12% acrylamide gels. First gel electrophoresis was performed at PI 4˜10 N, using a gel size of 8.5×7 cm. After electrophoresis, it was dyed with Colloidal Coomassie Blue, and then compared expression by using PDQuest software to analyze each spot.
(§4) Difference in the expression levels of more than 1.5 times was identified using MALDI-TOF MS (Matrix Desorption/Ionization Time of Flight Mass Spectromestry). Among these, proteins correlated with inflammation-related signaling, such as i-NOS and HMGB-1 were identified (Refer to Table 6). The changes in protein expression levels either increased or decreased by 1.5 times by amyloid-β protein, but it was confirmed that expression level was regulated close to that of negative control when PEP-1 was added (Refer to FIGS. 14A-14B).
(§5) The Table 6 below is an analysis of expression levels of proteins associated with inflammation by 2D electrophoresis technique. The control group represents protein expression level of cells that were not treated with neither amyloid-β protein nor PEP-1.

e-NOS = assay: as above; type: cell-based, rat; conditions: 20 ug β-amyloid + PEP 1 treated group, versus negative control 1.0
Experimental: as §2, §3, §4, §5

HSP 90 = assay: as above; type: cell-based, rat; conditions: 20 ug β-amyloid + PEP 1 treated group, versus negative control 1.0
Experimental: as §2, §3, §4, §5

Pyk2 = assay: as above; type: cell-based, rat; conditions: 20 ug β-amyloid + PEP 1 treated group, versus negative control 1.0
Experimental: as §2, §3, §4, §5

GADD 153 = assay: as above; type: cell-based, rat; conditions: 20 ug β-amyloid + PEP 1 treated group, versus negative control 1.0
Experimental: as §2, §3, §4, §5

MAP Kinase = assay: as above; type: cell-based, rat; conditions: 20 ug β-amyloid + PEP 1 treated group, versus negative control 1.0
Experimental: as §2, §3, §4, §5

HSP 70 = assay: as above; type: cell-based, rat; conditions: 20 ug β-amyloid + PEP 1 treated group, versus negative control 1.0
Experimental: as §2, §3, §4, §5

i-NOS = assay: as above; type: cell-based, rat; conditions: 20 ug β-amyloid + PEP 1 treated group, versus negative control 1.0
Experimental: as §2, §3, §4, §5

[7] = RAW 264.7 cells, LPS 1 μg/ml, PEP 1 5 μg/ml, 24 hr

Sequence: EARPALLTSRLRFIPK [PEP-1]
- protein expression levels of anti-apoptotic proteins Ki67, pAKT, PI3K, HSTF-1, Bcl-2 [1]: increased the protein expression levels
- neuronal stem cell death (TUNEL) (neural stem cells [2]): decreased
- cytokine IL-6 production % of control (IL-6; [7]): 28%
- cytokine IL-6 production inhibition % (IL-6; [7]): 72%
- decrease of proinflammatory cytokine secretion (IL-6) (IL-6; co-treatment with LPS): more than 70%
- HMGB1 in the cytoplasm of the nerve cells (HMGB1 [3]): increase of HMGB1
- concentration at which protection from amyloid-β neurotoxicity began (neural stem cells [4]): 10 µM
- concentration of most effective protection from amyloid-β neurotoxicity (neural stem cells [4]): 100 µM
- protein expression levels of apoptotic signals Bax, GSKβ, Cytochrom-c, caspase-3 [5]: decreased the protein expression levels
- HMGB1 expression (fold) (HMGB1 [6]): 2.8 fold
- e-NOS expression (fold) (e-NOS): −1.1 fold
- HSP 90 expression (fold) (HSP 90): 1.0 fold
- Pyk2 expression (fold) (Pyk2): 1.2 fold
- GADD 153 expression (fold) (GADD 153): 1.2 fold
- MAP Kinase expression (fold) (MAP Kinase): 1.0 fold
- HSP 70 expression (fold) (HSP 70): 1.2 fold
- i-NOS expression (fold) (i-NOS): −1.1 fold

— US11369665B2, “Anti-inflammatory peptides and composition comprising the same” (GemVax & KAEL Co., Ltd., priority 2012, dated 2022)
